How the values were obtained:
Assay in all cases: relative viability (nuclei count vs DMSO), 5 days (fraction); higher = more cells survive
Dabrafenib + Pictilisib = compound: CC(C)(C)c1nc(-c2cccc(NS(=O)(=O)c3c(F)cccc3F)c2F)c(-c2ccnc(N)n2)s1 [Dabrafenib] + CS(=O)(=O)N1CCN(Cc2cc3nc(-c4cccc5[nH]ncc45)nc(N4CCOCC4)c3s2)CC1 [Pictilisib] (partner 1 µM)
Outline: (§1)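 One day after seeding in 1536-well plates, lung cancer cell lines were dosed by pin tool. Dosing was either single-drug or a fixed anchor-drug dose plus five library-drug doses (not always all listed) in √10 steps. After 5 days, nuclei were stained in one fix-and-stain step and counted on 4× images, and relative viability is the nuclei count of treated wells over that of vehicle wells, given as the median of duplicate plates.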

VX-702 + AZD7762 = compound: NC(=O)c1ccc(N(C(N)=O)c2c(F)cccc2F)nc1-c1ccc(F)cc1F [VX-702] + NC(=O)Nc1cc(-c2cccc(F)c2)sc1C(=O)N[C@H]1CCCNC1 [AZD7762] (partner 0.2 µM)
Outline: as §1

VX-702 + Trametinib = compound: NC(=O)c1ccc(N(C(N)=O)c2c(F)cccc2F)nc1-c1ccc(F)cc1F [VX-702] + CC(=O)Nc1cccc(-n2c(=O)n(C3CC3)c(=O)c3c(Nc4ccc(I)cc4F)n(C)c(=O)c(C)c32)c1 [Trametinib] (partner 0.02 µM)
Outline: as §1

Dabrafenib + Decitabine = compound: CC(C)(C)c1nc(-c2cccc(NS(=O)(=O)c3c(F)cccc3F)c2F)c(-c2ccnc(N)n2)s1 [Dabrafenib] + Nc1ncn([C@H]2C[C@H](O)[C@@H](CO)O2)c(=O)n1 [Decitabine] (partner 2 µM)
Outline: as §1

IA-LM
relative viability (Dabrafenib + Pictilisib; first compound 0.003 µM): 0.379
relative viability (Dabrafenib + Pictilisib; first compound 0.009487 µM): 0.569
relative viability (Dabrafenib + Pictilisib; first compound 0.03 µM): 0.444
relative viability (Dabrafenib + Pictilisib; first compound 0.09487 µM): 0.412
relative viability (Dabrafenib + Pictilisib; first compound 0.3 µM): 0.255

LC-2-ad
relative viability (VX-702 + AZD7762; first compound 0.02 µM): 0.837
relative viability (VX-702 + AZD7762; first compound 0.2 µM): 0.854
relative viability (VX-702 + AZD7762; first compound 0.6325 µM): 0.892
relative viability (VX-702 + AZD7762; first compound 2 µM): 0.973
relative viability (VX-702 + Trametinib; first compound 0.02 µM): 0.948
relative viability (VX-702 + Trametinib; first compound 0.2 µM): 0.916
relative viability (VX-702 + Trametinib; first compound 0.6325 µM): 0.921
relative viability (VX-702 + Trametinib; first compound 2 µM): 0.97
relative viability (Dabrafenib + Decitabine; first compound 0.003 µM): 0.749
relative viability (Dabrafenib + Decitabine; first compound 0.009487 µM): 0.753
relative viability (Dabrafenib + Decitabine; first compound 0.03 µM): 0.776
relative viability (Dabrafenib + Decitabine; first compound 0.09487 µM): 0.771
relative viability (Dabrafenib + Decitabine; first compound 0.3 µM): 0.689
relative viability (Dabrafenib + Pictilisib; first compound 0.003 µM): 0.489
relative viability (Dabrafenib + Pictilisib; first compound 0.009487 µM): 0.137
relative viability (Dabrafenib + Pictilisib; first compound 0.03 µM): 0.408
relative viability (Dabrafenib + Pictilisib; first compound 0.09487 µM): 0.455
relative viability (Dabrafenib + Pictilisib; first compound 0.3 µM): 0.497

LCLC-97TM1
relative viability (VX-702 + AZD7762; first compound 0.02 µM): 0.356
relative viability (VX-702 + AZD7762; first compound 0.2 µM): 0.175
relative viability (VX-702 + AZD7762; first compound 0.6325 µM): 0.301
relative viability (VX-702 + AZD7762; first compound 2 µM): 0.301
relative viability (VX-702 + Trametinib; first compound 0.02 µM): 0.197
relative viability (VX-702 + Trametinib; first compound 0.2 µM): 0.192
relative viability (VX-702 + Trametinib; first compound 0.6325 µM): 0.185
relative viability (VX-702 + Trametinib; first compound 2 µM): 0.202
relative viability (Dabrafenib + Decitabine; first compound 0.009487 µM): 0.19
relative viability (Dabrafenib + Decitabine; first compound 0.03 µM): 0.184
relative viability (Dabrafenib + Decitabine; first compound 0.09487 µM): 0.197
relative viability (Dabrafenib + Decitabine; first compound 0.3 µM): 0.194
relative viability (Dabrafenib + Pictilisib; first compound 0.009487 µM): 0.206
relative viability (Dabrafenib + Pictilisib; first compound 0.03 µM): 0.213
relative viability (Dabrafenib + Pictilisib; first compound 0.3 µM): 0.149

LCLC-103H
relative viability (VX-702 + AZD7762; first compound 0.02 µM): 0.76
relative viability (VX-702 + AZD7762; first compound 0.2 µM): 0.816
relative viability (VX-702 + AZD7762; first compound 0.6325 µM): 0.825
relative viability (VX-702 + AZD7762; first compound 2 µM): 0.873
relative viability (VX-702 + Trametinib; first compound 0.02 µM): 0.723
relative viability (VX-702 + Trametinib; first compound 0.2 µM): 0.743
relative viability (VX-702 + Trametinib; first compound 0.6325 µM): 0.665
relative viability (VX-702 + Trametinib; first compound 2 µM): 0.711
relative viability (Dabrafenib + Decitabine; first compound 0.003 µM): 0.724
relative viability (Dabrafenib + Decitabine; first compound 0.009487 µM): 0.776
relative viability (Dabrafenib + Decitabine; first compound 0.03 µM): 0.696
relative viability (Dabrafenib + Decitabine; first compound 0.09487 µM): 0.658
relative viability (Dabrafenib + Decitabine; first compound 0.3 µM): 0.745
relative viability (Dabrafenib + Pictilisib; first compound 0.003 µM): 0.556
relative viability (Dabrafenib + Pictilisib; first compound 0.009487 µM): 0.657
relative viability (Dabrafenib + Pictilisib; first compound 0.03 µM): 0.426
relative viability (Dabrafenib + Pictilisib; first compound 0.09487 µM): 0.721
relative viability (Dabrafenib + Pictilisib; first compound 0.3 µM): 0.71

LK-2
relative viability (VX-702 + AZD7762; first compound 0.02 µM): 0.312
relative viability (VX-702 + AZD7762; first compound 0.2 µM): 0.234
relative viability (VX-702 + AZD7762; first compound 0.6325 µM): 0.343
relative viability (VX-702 + AZD7762; first compound 2 µM): 0.292
relative viability (VX-702 + Trametinib; first compound 0.02 µM): 0.591
relative viability (VX-702 + Trametinib; first compound 0.2 µM): 0.696
relative viability (VX-702 + Trametinib; first compound 0.6325 µM): 0.568
relative viability (VX-702 + Trametinib; first compound 2 µM): 0.788
relative viability (Dabrafenib + Decitabine; first compound 0.003 µM): 0.225
relative viability (Dabrafenib + Decitabine; first compound 0.009487 µM): 0.287
relative viability (Dabrafenib + Decitabine; first compound 0.09487 µM): 0.326
relative viability (Dabrafenib + Decitabine; first compound 0.3 µM): 0.22
relative viability (Dabrafenib + Pictilisib; first compound 0.003 µM): 0.552
relative viability (Dabrafenib + Pictilisib; first compound 0.009487 µM): 0.614
relative viability (Dabrafenib + Pictilisib; first compound 0.09487 µM): 0.587
relative viability (Dabrafenib + Pictilisib; first compound 0.3 µM): 0.748
